Measured values published in the supplement of paper PMC10307832.

Columns and labels:
Experiment in all cases: relative viability (nuclei count vs DMSO), 5 days (fraction); higher = more cells survive
BAY61-3606 = compound: COC1=C(C=C(C=C1)C2=CC3=NC=CN3C(=N2)NC4=C(C=CC=N4)C(=O)N)OC [BAY61-3606]
Procedure, shortened: (§1)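 Vehicle-anchored 1536-well plates of lung cancer cell lines, held overnight at 37 °C, were pinned with five library-drug doses (not always all listed) spaced by √10. No medium change followed over the next 5 days, after which the cells were fixed, permeabilised and Hoechst-stained together and imaged at 4×. Nuclei were counted with MetaXpress, and viability is treated-well nuclei over vehicle-well nuclei, taken as a median across plates. Plates passed with control CV below 25% and at least one doubling.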

Doxorubicin = compound: COc1cccc2c1C(=O)c1c(O)c3c(c(O)c1C2=O)C[C@@](O)(C(=O)CO)C[C@@H]3O[C@H]1C[C@H](N)[C@H](O)[C@H](C)O1 [Doxorubicin]
Procedure, shortened: as §1

BAY61-3606 + Navitoclax = compound: COC1=C(C=C(C=C1)C2=CC3=NC=CN3C(=N2)NC4=C(C=CC=N4)C(=O)N)OC [BAY61-3606] + CC1(C)CCC(c2ccc(Cl)cc2)=C(CN2CCN(c3ccc(C(=O)NS(=O)(=O)c4ccc(N[C@H](CCN5CCOCC5)CSc5ccccc5)c(S(=O)(=O)C(F)(F)F)c4)cc3)CC2)C1 [Navitoclax] (partner 0.5 µM)
Procedure, shortened: (§2)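 Lung cancer cell lines were seeded in 1536-well plates and dosed by pin tool the next day, with either a single drug or a fixed anchor-drug dose combined with five library-drug doses (not always all listed) spaced in √10 steps. Five days later, one step fixed the cells and stained their nuclei (final 0.05% Triton X-100, 1% formaldehyde, 1 ug/ml Hoechst), and nuclei were counted on 4× images. Relative viability is the nuclei count in treated wells divided by the count in vehicle wells, and each value is the median of duplicate plates.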

BAY61-3606 + Foretinib = compound: COC1=C(C=C(C=C1)C2=CC3=NC=CN3C(=N2)NC4=C(C=CC=N4)C(=O)N)OC [BAY61-3606] + COc1cc2c(Oc3ccc(NC(=O)C4(C(=O)Nc5ccc(F)cc5)CC4)cc3F)ccnc2cc1OCCCN1CCOCC1 [Foretinib] (partner 0.25 µM)
Procedure, shortened: as §2

Row | Cell Line | relative viability (BAY61-3606; 0.02 µM) | relative viability (BAY61-3606; 0.06325 µM) | relative viability (BAY61-3606; 0.2 µM) | relative viability (BAY61-3606; 0.6325 µM) | relative viability (BAY61-3606; 2 µM) | relative viability (Doxorubicin; 0.001 µM) | relative viability (Doxorubicin; 0.003162 µM) | relative viability (Doxorubicin; 0.01 µM) | relative viability (Doxorubicin; 0.03162 µM) | relative viability (Doxorubicin; 0.1 µM) | relative viability (BAY61-3606 + Navitoclax; first compound 0.02 µM) | relative viability (BAY61-3606 + Navitoclax; first compound 0.06325 µM) | relative viability (BAY61-3606 + Navitoclax; first compound 0.2 µM) | relative viability (BAY61-3606 + Navitoclax; first compound 0.6325 µM) | relative viability (BAY61-3606 + Navitoclax; first compound 2 µM) | relative viability (BAY61-3606 + Foretinib; first compound 0.02 µM) | relative viability (BAY61-3606 + Foretinib; first compound 0.06325 µM) | relative viability (BAY61-3606 + Foretinib; first compound 0.2 µM) | relative viability (BAY61-3606 + Foretinib; first compound 0.6325 µM) | relative viability (BAY61-3606 + Foretinib; first compound 2 µM)
1 | NCI-H1915 | 0.993 | 0.996 | 0.826 | 1.01 | 0.786 | 0.955 | 1.03 | 0.966 | 1.03 | 1.01 | 0.775 | 0.779 | 0.715 | 0.755 | 0.765 | 1.06 | 1.09 | 1.07 | 1.13 | 0.613
2 | LOU-NH91 | 0.991 | 0.816 | 0.965 | 0.996 | 0.862 | 0.692 | 0.948 | 1.05 | 0.914 | 0.761 | 0.73 | 0.57 | 0.731 | 0.812 | 0.5 | 0.95 | 0.916 | 0.985 | 0.976 | 0.823
3 | NCI-H1734 | 1.04 | 0.979 | 0.746 | 0.935 | 0.602 | 0.923 | 1.11 | 0.876 | 0.669 | 0.608 | 0.904 | 0.727 | 0.786 | 0.829 | 0.529 | 0.825 | 0.79 | 0.743 | 0.836 | 0.411
4 | LCLC-97TM1 | 1.06 | 1.07 | 1 | 0.892 | 1.01 | 0.909 | 1.11 | 0.909 | 0.822 | 0.749 | 0.393 |  | 0.386 | 0.417 | 0.326 | 0.92 | 0.943 | 0.962 | 1.04 | 0.765
5 | HCC-366 | 0.988 | 1.03 | 1.01 | 0.96 | 0.903 | 0.909 | 0.991 | 1.02 | 0.959 | 0.587 | 1.09 | 1.05 | 0.87 | 0.999 | 0.891 | 0.934 | 0.942 | 0.93 | 0.924 | 0.893
6 | BEN | 1.05 | 0.891 | 1.1 | 1.07 | 1.05 | 1.19 | 1.03 | 0.985 | 0.683 | 0.85 | 0.0718 | 0.0633 | 0.0644 | 0.0773 | 0.0651 | 0.701 | 0.69 | 0.723 | 0.654 | 0.911
7 | NCI-H1703 | 1.16 | 0.789 | 0.77 | 0.919 | 0.558 | 0.857 | 0.936 | 0.812 | 0.4 | 0.351 | 1.47 | 0.859 | 0.954 | 1.08 | 0.475 | 0.337 |  | 0.315 | 0.316 | 0.346
8 | NCI-H441 | 1.12 | 1.15 | 1.01 | 1.15 | 0.682 | 0.687 | 0.957 | 0.677 | 0.359 | 0.326 | 0.84 | 0.515 | 0.66 | 0.82 | 0.262 | 0.979 | 1.12 | 1.15 | 0.862 | 0.754
9 | ChaGo-K-1 | 0.97 | 0.942 | 0.918 | 0.949 | 0.945 | 1.06 | 1.09 | 0.923 | 0.892 | 0.563 | 1.18 | 0.822 | 0.946 | 0.666 | 0.983 | 0.868 | 0.834 | 0.93 | 0.948 | 0.788
10 | COR-L 105 | 0.932 | 0.892 | 0.951 | 0.852 | 0.568 | 0.951 | 0.853 | 0.827 | 0.706 | 0.503 | 0.79 | 0.714 | 0.624 | 0.812 | 0.409 | 1.32 | 1.36 | 0.884 | 1.05 | 0.605
11 | NCI-H1993 | 0.958 | 0.896 | 0.818 | 0.97 | 0.806 | 0.967 | 0.927 | 1.01 | 0.819 | 0.749 | 0.831 | 0.785 | 0.707 | 0.819 | 0.739 | 0.818 | 0.772 | 0.712 | 0.794 | 0.66
12 | Calu-6 | 1.07 | 1.05 | 0.979 | 0.963 | 0.807 | 0.966 | 1.02 | 0.929 | 0.566 | 0.431 | 0.84 | 0.981 | 0.799 | 0.788 | 0.607 | 0.894 | 0.905 | 0.793 | 0.773 | 0.617
13 | NCI-H2009 | 1.06 | 1.03 | 0.997 | 0.989 | 0.894 | 0.99 | 1.01 | 0.94 | 0.843 | 0.504 | 1.14 | 1.22 | 1.14 | 1.15 | 1.11 | 1.34 | 1.31 | 1.22 | 1.26 | 1.06
14 | NCI-H23 | 1.11 | 1.03 | 0.78 | 0.947 | 0.789 |  | 1.06 | 0.978 | 0.654 | 0.532 | 0.936 | 0.809 | 0.775 | 0.983 | 0.551 | 1.05 | 0.907 | 1.01 | 1.03 | 0.874
15 | NCI-H2405 | 1.07 | 0.984 | 0.977 | 0.968 | 0.84 | 0.972 | 1.04 | 1.08 | 0.997 | 0.626 | 0.904 | 0.669 | 0.857 | 1.08 | 0.655 | 1.06 | 1.05 | 1.11 | 1.11 | 0.867
16 | EMC-BAC-2 | 1.04 | 1 | 0.921 | 0.988 | 0.942 | 1.34 | 0.844 | 0.748 | 0.469 | 0.326 | 1.21 | 1.21 | 1.16 | 1.24 | 1.19 | 1.1 | 0.992 | 1.02 | 1.11 | 0.738
